Results from patent US9738634B2, “Heterocyclic amide compound and herbicide” (SYNGENTA PARTICIPATIONS AG, priority 2013, dated 2017).

Key:
Format in all cases: in vivo
[1] = system: barnyard grass; assay: Test Example 1: weedkilling efficacy, preemergent weed treatment in the submerged state; A: barnyard grass; details: treatment dosage 320 g/ha
Outline: (§1)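 Alluvial soil in Wagner pots flooded to 4 cm; barnyard grass, bulrush and oval-leafed pondweed seeds sown, then 2.5-leaf rice seedlings transplanted. Same day, emulsified compound diluted in water to set g/ha dosages and applied to water surface; greenhouse 25–30 °C, effect scored by criteria after 3 weeks.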

[2] = system: bulrush; assay: Test Example 1: weedkilling efficacy, preemergent weed treatment in the submerged state; B: bulrush; details: treatment dosage 320 g/ha
Outline: as §1

[3] = system: oval-leafed pondweed; assay: Test Example 1: weedkilling efficacy, preemergent weed treatment in the submerged state; C: oval-leafed pondweed; details: treatment dosage 320 g/ha
Outline: as §1

[4] = system: transplanted rice; assay: Test Example 1: preemergent weed treatment in the submerged state, effect on crop; a: transplanted rice; details: treatment dosage 320 g/ha
Outline: as §1

[5] = system: barnyard grass; assay: Test Example 2: weedkilling efficacy, growth period weed treatment in the submerged state; A: barnyard grass; details: treatment dosage 320 g/ha
Outline: (§2)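 First, alluvial soil in pots is flooded to 4 cm and mixed seed is sown. Next, plants grow in a greenhouse at 25 to 30° C until the 1-2 leaf stage. Then diluted emulsion is applied onto the water surface at the given g/ha rate, and injury is assessed after 3 weeks.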

[6] = system: bulrush; assay: Test Example 2: weedkilling efficacy, growth period weed treatment in the submerged state; B: bulrush; details: treatment dosage 320 g/ha
Outline: as §2

[7] = system: oval-leafed pondweed; assay: Test Example 2: weedkilling efficacy, growth period weed treatment in the submerged state; C: oval-leafed pondweed; details: treatment dosage 320 g/ha
Outline: as §2

[8] = system: crabgrass; assay: Test Example 3: weedkilling efficacy through soil treatment; D: crabgrass; details: soil treatment, treatment dosage 320 g/ha
Outline: (§3)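 Crop and weed responses were judged three weeks after a uniform surface spray of the water-diluted emulsion at the given g/ha rate. Seeds sat beneath about 1.5 cm of sterilized diluvial soil, and boxes stood in a greenhouse at 25 to 30° C.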

[9] = system: green foxtail; assay: Test Example 3: weedkilling efficacy through soil treatment; E: green foxtail; details: soil treatment, treatment dosage 320 g/ha
Outline: as §3

[10] = system: barnyard grass; assay: Test Example 3: weedkilling efficacy through soil treatment; F: barnyard grass; details: soil treatment, treatment dosage 320 g/ha
Outline: as §3

[11] = system: wild oat; assay: Test Example 3: weedkilling efficacy through soil treatment; G: wild oat; details: soil treatment, treatment dosage 320 g/ha
Outline: as §3

[12] = system: black-grass; assay: Test Example 3: weedkilling efficacy through soil treatment; H: black-grass; details: soil treatment, treatment dosage 320 g/ha
Outline: as §3

[13] = system: Italian ryegrass; assay: Test Example 3: weedkilling efficacy through soil treatment; I: Italian ryegrass; details: soil treatment, treatment dosage 320 g/ha
Outline: as §3

[14] = system: common wind-grass; assay: Test Example 3: weedkilling efficacy through soil treatment; J: common wind-grass; details: soil treatment, treatment dosage 320 g/ha
Outline: as §3

[15] = system: Indian mallow; assay: Test Example 3: weedkilling efficacy through soil treatment; K: Indian mallow; details: soil treatment, treatment dosage 320 g/ha
Outline: as §3

[16] = system: redroot pigweed; assay: Test Example 3: weedkilling efficacy through soil treatment; L: redroot pigweed; details: soil treatment, treatment dosage 320 g/ha
Outline: as §3

[17] = system: fig-leafed goosefoot; assay: Test Example 3: weedkilling efficacy through soil treatment; M: fig-leafed goosefoot; details: soil treatment, treatment dosage 320 g/ha
Outline: as §3

[18] = system: chickweed; assay: Test Example 3: weedkilling efficacy through soil treatment; N: chickweed; details: soil treatment, treatment dosage 320 g/ha
Outline: as §3

[19] = system: catchweed; assay: Test Example 3: weedkilling efficacy through soil treatment; O: catchweed; details: soil treatment, treatment dosage 320 g/ha
Outline: as §3

[20] = system: birds-eye speedwell; assay: Test Example 3: weedkilling efficacy through soil treatment; p: birds-eye speedwell; details: soil treatment, treatment dosage 320 g/ha
Outline: as §3

[21] = system: directly sown rice; assay: Test Example 3: soil treatment, effect on crop; b: directly sown rice; details: soil treatment, treatment dosage 320 g/ha
Outline: as §3

[22] = system: corn; assay: Test Example 3: soil treatment, effect on crop; c: corn; details: soil treatment, treatment dosage 320 g/ha
Outline: as §3

[23] = system: soybean; assay: Test Example 3: soil treatment, effect on crop; d: soybean; details: soil treatment, treatment dosage 320 g/ha
Outline: as §3

[24] = system: wheat; assay: Test Example 3: soil treatment, effect on crop; e: wheat; details: soil treatment, treatment dosage 320 g/ha
Outline: as §3

[25] = system: beet; assay: Test Example 3: soil treatment, effect on crop; f: beet; details: soil treatment, treatment dosage 320 g/ha
Outline: as §3

[26] = system: rapeseed; assay: Test Example 3: soil treatment, effect on crop; g: rapeseed; details: soil treatment, treatment dosage 320 g/ha
Outline: as §3

Compound | A: barnyard grass, weed kill grade [1] | B: bulrush, weed kill grade [2] | C: oval-leafed pondweed, weed kill grade [3] | a: transplanted rice, effect on crop grade [4] | A (barnyard grass) weedkilling efficacy grade [5] | B (bulrush) weedkilling efficacy grade [6] | C (oval-leafed pondweed) weedkilling efficacy grade [7] | D: crabgrass, weedkilling efficacy grade [8] | E: green foxtail, weedkilling efficacy grade [9] | F: barnyard grass, weedkilling efficacy grade [10] | G: wild oat, weedkilling efficacy grade [11] | H: black-grass, weedkilling efficacy grade [12] | I: Italian ryegrass, weedkilling efficacy grade [13] | J: common wind-grass, weedkilling efficacy grade [14] | K: Indian mallow, weedkilling efficacy grade [15] | L: redroot pigweed, weedkilling efficacy grade [16] | M: fig-leafed goosefoot, weedkilling efficacy grade [17] | N: chickweed, weedkilling efficacy grade [18] | O: catchweed, weedkilling efficacy grade [19] | P: birds-eye speedwell, weedkilling efficacy grade [20] | further results
CC(C)(C(=O)Nc1cc(Cl)cc(-c2ccccc2)n1)N1COCN(c2ccccc2)C1=O [A-2-31] | 5 (weed kill ratio 90% or more, (practically complete withering)) | 5 (weed kill ratio 90% or more, (practically complete withering)) | 5 (weed kill ratio 90% or more, (practically complete withering)) | 0 (weed kill ratio 5% or less (practically no effect)) | 5 (weed kill ratio 90% or more, (practically complete withering)) | 5 (weed kill ratio 90% or more, (practically complete withering)) | 4 (weed kill ratio 70% or more, less than 90%) | 2 (weed kill ratio 20% or more, less than 40%) | 2 (weed kill ratio 20% or more, less than 40%) | 2 (weed kill ratio 20% or more, less than 40%) | 2 (weed kill ratio 20% or more, less than 40%) | 3 (weed kill ratio 40% or more, less than 70%) | 1 (weed kill ratio 5% or more, less than 20%) | 4 (weed kill ratio 70% or more, less than 90%) | 0 (weed kill ratio 5% or less (practically no effect)) | 0 (weed kill ratio 5% or less (practically no effect)) | 2 (weed kill ratio 20% or more, less than 40%) | 3 (weed kill ratio 40% or more, less than 70%) | 3 (weed kill ratio 40% or more, less than 70%) | 3 (weed kill ratio 40% or more, less than 70%) | b: directly sown rice, effect on crop grade [21]: 0 (weed kill ratio 5% or less (practically no effect)); c: corn, effect on crop grade [22]: 0 (weed kill ratio 5% or less (practically no effect)); d: soybean, effect on crop grade [23]: 0 (weed kill ratio 5% or less (practically no effect)); e: wheat, effect on crop grade [24]: 0 (weed kill ratio 5% or less (practically no effect)); f: beet, effect on crop grade [25]: 0 (weed kill ratio 5% or less (practically no effect)); g: rapeseed, effect on crop grade [26]: 0 (weed kill ratio 5% or less (practically no effect))
COc1cc(Cl)cc(NC(=O)C(C)(C)N2COCN(c3ccccc3)C2=O)n1 [A-2-32] | 5 (weed kill ratio 90% or more, (practically complete withering)) | 5 (weed kill ratio 90% or more, (practically complete withering)) | 5 (weed kill ratio 90% or more, (practically complete withering)) | 4 (weed kill ratio 70% or more, less than 90%) | 5 (weed kill ratio 90% or more, (practically complete withering)) | 5 (weed kill ratio 90% or more, (practically complete withering)) | 5 (weed kill ratio 90% or more, (practically complete withering)) | 5 (weed kill ratio 90% or more, (practically complete withering)) | 5 (weed kill ratio 90% or more, (practically complete withering)) | 5 (weed kill ratio 90% or more, (practically complete withering)) | 5 (weed kill ratio 90% or more, (practically complete withering)) | 5 (weed kill ratio 90% or more, (practically complete withering)) | 5 (weed kill ratio 90% or more, (practically complete withering)) | 5 (weed kill ratio 90% or more, (practically complete withering)) | 0 (weed kill ratio 5% or less (practically no effect)) | 3 (weed kill ratio 40% or more, less than 70%) | 5 (weed kill ratio 90% or more, (practically complete withering)) | 4 (weed kill ratio 70% or more, less than 90%) | 5 (weed kill ratio 90% or more, (practically complete withering)) | 5 (weed kill ratio 90% or more, (practically complete withering)) | b: directly sown rice, effect on crop grade [21]: 2 (weed kill ratio 20% or more, less than 40%); c: corn, effect on crop grade [22]: 1 (weed kill ratio 5% or more, less than 20%); d: soybean, effect on crop grade [23]: 0 (weed kill ratio 5% or less (practically no effect)); e: wheat, effect on crop grade [24]: 0 (weed kill ratio 5% or less (practically no effect)); f: beet, effect on crop grade [25]: 4 (weed kill ratio 70% or more, less than 90%); g: rapeseed, effect on crop grade [26]: 4 (weed kill ratio 70% or more, less than 90%)
CC(C)(C(=O)Nc1cc(Oc2ccccc2)cc(Cl)n1)N1COCN(c2ccccc2)C1=O [A-2-36] | 5 (weed kill ratio 90% or more, (practically complete withering)) | 5 (weed kill ratio 90% or more, (practically complete withering)) | 5 (weed kill ratio 90% or more, (practically complete withering)) | 2 (weed kill ratio 20% or more, less than 40%) | 5 (weed kill ratio 90% or more, (practically complete withering)) | 3 (weed kill ratio 40% or more, less than 70%) | 5 (weed kill ratio 90% or more, (practically complete withering)) | 5 (weed kill ratio 90% or more, (practically complete withering)) | 5 (weed kill ratio 90% or more, (practically complete withering)) | 4 (weed kill ratio 70% or more, less than 90%) | 0 (weed kill ratio 5% or less (practically no effect)) | 5 (weed kill ratio 90% or more, (practically complete withering)) | 5 (weed kill ratio 90% or more, (practically complete withering)) | 5 (weed kill ratio 90% or more, (practically complete withering)) | 0 (weed kill ratio 5% or less (practically no effect)) | 3 (weed kill ratio 40% or more, less than 70%) | 3 (weed kill ratio 40% or more, less than 70%) | 3 (weed kill ratio 40% or more, less than 70%) | 0 (weed kill ratio 5% or less (practically no effect)) | 4 (weed kill ratio 70% or more, less than 90%) | b: directly sown rice, effect on crop grade [21]: 0 (weed kill ratio 5% or less (practically no effect)); c: corn, effect on crop grade [22]: 0 (weed kill ratio 5% or less (practically no effect)); d: soybean, effect on crop grade [23]: 0 (weed kill ratio 5% or less (practically no effect)); e: wheat, effect on crop grade [24]: 0 (weed kill ratio 5% or less (practically no effect)); f: beet, effect on crop grade [25]: 2 (weed kill ratio 20% or more, less than 40%); g: rapeseed, effect on crop grade [26]: 1 (weed kill ratio 5% or more, less than 20%)
